Measurements as given in US12281149B2, “Modulators of G-protein coupled receptors” (priority 2021, dated 2025).
Like-named read-outs stand apart in the source and are kept apart here. *1 amine or outer side, *2 acyl side, *3 side chain or, on linkers, in order; H or OH if unused. Where a SMILES comes first, the peptide text is derived from it. Side-chain parts run from the residue outwards. [ ]: non-standard residue; d: D form. The star is where a group is joined. Isobutyryl(2-(3-CN-5-F-Ph)) = CC(C)(C(=O)*)c1cc(F)cc(C#N)c1; C20 diacid = O=C(O)CCCCCCCCCCCCCCCCCCC(=O)*; αMePhe(2-F) = C[C@](N)(Cc1ccccc1F)C(=O)O; NH(3,5-Cl2-phenyl) = Clc1cc(Cl)cc(N*)c1; γGlu = O=C(O)[C@H](CCC(=O)[*:2])N[*:1]; X11 = C[C@@H](C(=O)*)c1ccccc1; X60 = O=C(C1(c2cccnc2)CCCC1)*; AEEA = NCCOCCOCC(=O)O; Aib = CC(C)(N)C(=O)O; CO = O=C([*:1])[*:2]; GABA = NCCCC(=O)O; βAla = NCCC(=O)O

What was measured:
Format in all cases: cell-based
GLP-1 receptor [1] = biological target: T1, GLP-1 receptor (Homo sapiens, UniProt P43220); assay: HitHunter cAMP assay, GLP-1 receptor; details: for Emax: read-out: Emax GLP-1R
GIP receptor [2] = biological target: T2, GIP receptor (Homo sapiens, UniProt P48546); assay: HitHunter cAMP assay, GIP receptor; details: for Emax: read-out: Emax GIP-1R
T2 sequence (P48546 22-466): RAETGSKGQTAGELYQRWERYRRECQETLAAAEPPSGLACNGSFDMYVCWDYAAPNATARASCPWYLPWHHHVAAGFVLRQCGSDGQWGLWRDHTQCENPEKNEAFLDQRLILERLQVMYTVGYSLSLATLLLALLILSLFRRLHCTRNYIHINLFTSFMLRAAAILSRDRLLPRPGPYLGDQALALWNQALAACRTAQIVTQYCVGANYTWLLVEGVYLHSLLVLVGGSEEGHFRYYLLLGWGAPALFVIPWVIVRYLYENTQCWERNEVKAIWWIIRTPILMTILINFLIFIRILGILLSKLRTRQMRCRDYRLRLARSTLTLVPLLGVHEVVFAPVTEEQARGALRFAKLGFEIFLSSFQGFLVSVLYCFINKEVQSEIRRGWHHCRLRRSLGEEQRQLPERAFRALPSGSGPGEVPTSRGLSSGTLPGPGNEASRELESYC
Experimental: CAMP accumulation was measured in Chinese hamster ovary (CHO) cells stably expressing the human GLP-1 receptor or GIP receptor using the HitHunter CAMP Assay for Small Molecules Kit (Eurofins). Briefly, cells were grown in Ham's F12 Nutrient Mix with 10% FBS and lifted with Cell dissociation buffer, Enzyme free, PBS based (ThermoFisher). Cells were pelleted and resuspended in Hank's buffered saline solution with 10 mM Hepes and 625 μM 3-isobutyl-1-methylxanthine. The antibody reagent was then added to cells at a 1:2 ratio and 5 μL of mixture was seeded in 384-well small volume white assay plates, at 10,000 cells/well. Cells were then treated with 50 nl compound in DMSO using an ECHO 550 acoustic dispenser (Labcyte) in a 20-point dose response format in triplicate for 30 min. Cells were the lysed and detection reagents added according to the manufacturer's protocol. After overnight incubation, luminescence was measured using a Perkin Elmer Envision plate reader. Raw data was normalized to the maximum signal from GLP-1 or GIP (high) and DMSO (low). Dose response curves were analyzed using GraphPad Prism 9.0.

GIP receptor [3] = biological target: T2, GIP receptor; assay: PathHunter β-arrestin assay, GIP receptor; parameters: host or cells: PathHunter CHO-K1 GIPR β-Arrestin Cell Line
Experimental: β-arrestin-2 recruitment for GLP-1 receptor or GIP receptor was measured using the DiscoverX PathHunter Detection Kit and PathHunter® CHO-K1 GLPIR β-Arrestin Cell Line or PathHunter® CHO-K1 GIPR β-Arrestin Cell Line, respectively). Briefly, cells were grown in Ham's F12 Nutrient Mix with 10% FBS and lifted with Cell dissociation buffer, Enzyme free, PBS based (ThermoFisher). Harvested cells were pelleted and resuspended in Assay Complete Cell Plating Reagent 2 and 5000 cells per well were plated in tissue culture treated 384-well small volume white assay plates. Plates were then incubated at 37° C. and 5% CO2 overnight. The media was then replaced with fresh Assay Complete Cell Plating Reagent 2. Cells were then treated with 10 nl compound in DMSO using an ECHO 550 acoustic dispenser (Labcyte) in a 20-point dose response format in duplicate for 90 min at 37° C. The assay was then completed according to the manufacturer's instructions. Luminescence was measured using a Perkin Elmer Envision plate reader. Raw data was normalized to the maximum signal from GLP-1 or GIP (high) and DMSO (low). Dose response curves were analyzed using GraphPad Prism 9.0.

GLP-1 receptor [4] = biological target: T1, GLP-1 receptor; assay: PathHunter β-arrestin assay, GLP-1 receptor; parameters: host or cells: PathHunter CHO-K1 GLP1R β-Arrestin Cell Line
[5] = CHO cells stably expressing human GLP-1 receptor, cAMP accumulation, 30 min, read-out: EC50 GLP-1R
[6] = CHO cells, cAMP, normalized to maximum signal from GLP-1 (high) and DMSO (low)
[7] = CHO cells stably expressing GIP receptor, cAMP accumulation, 30 min, read-out: EC50 GIP-1R
[8] = CHO cells, cAMP, normalized to maximum signal from GIP (high) and DMSO (low)
[9] = β-arrestin-2 recruitment, PathHunter CHO-K1 GIPR β-Arrestin Cell Line, 90 min at 37° C., normalized to GIP, read-out: GIPR β Arrestin EC50
[10] = β-arrestin-2 recruitment, PathHunter CHO-K1 GLP1R β-Arrestin Cell Line, 90 min at 37° C., normalized to GLP-1, read-out: GLP-1R β Arrestin EC50

T1 sequence (P43220 24-463): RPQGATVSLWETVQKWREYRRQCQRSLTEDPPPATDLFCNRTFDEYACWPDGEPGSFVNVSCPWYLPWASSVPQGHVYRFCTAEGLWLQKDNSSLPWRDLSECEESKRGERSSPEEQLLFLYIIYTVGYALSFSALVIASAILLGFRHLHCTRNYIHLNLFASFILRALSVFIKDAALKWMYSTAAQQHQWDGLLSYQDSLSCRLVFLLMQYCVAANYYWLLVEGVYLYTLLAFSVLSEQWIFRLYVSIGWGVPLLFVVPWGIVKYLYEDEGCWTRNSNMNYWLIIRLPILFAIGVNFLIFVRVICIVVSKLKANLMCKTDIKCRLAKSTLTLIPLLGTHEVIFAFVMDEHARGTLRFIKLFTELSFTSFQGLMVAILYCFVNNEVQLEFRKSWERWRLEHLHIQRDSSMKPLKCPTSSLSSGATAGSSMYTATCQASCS

Row | Structure (SMILES) | EC50 (GLP-1 receptor [1]; [5]) [nM] | Emax (GLP-1 receptor [1]; [6]) [%] | EC50 (GIP receptor [2]; [7]) [nM] | Emax (GIP receptor [2]; [8]) [%] | EC50 (GIP receptor [3]; [9]) [nM] | EC50 (GLP-1 receptor [4]; [10]) [nM] | EC50 (GLP-1 receptor [1]) [nM] | Emax (GLP-1 receptor [1]; CHO) [%] | EC50 (GIP receptor [2]) [nM] | Emax (GIP receptor [2]; CHO) [%] | EC50 (GIP receptor [3]) [nM] | EC50 (GLP-1 receptor [4]) [nM]
1 | CC[C@H](C)[C@H](NC(=O)[C@H](CC(C)C)NC(=O)[C@H](Cc1c[nH]c2ccccc12)NC(=O)[C@H](CCC(N)=O)NC(=O)[C@@H](NC(=O)[C@H](Cc1ccccc1)NC(=O)[C@H](C)NC(=O)[C@H](CCCCNC(=O)COCCOCCNC(=O)COCCOCCNC(=O)CC[C@H](NC(=O)CCCCCCCCCCCCCCCCCCC(=O)O)C(=O)O)NC(=O)[C@H](CCC(N)=O)NC(=O)[C@H](C)NC(=O)[C@@H](NC(=O)[C@H](CCCCN)NC(=O)[C@H](CC(=O)O)NC(=O)[C@H](CC(C)C)NC(=O)C(C)(C)NC(=O)[C@@H](NC(=O)[C@H](CO)NC(=O)[C@H](Cc1ccc(O)cc1)NC(=O)[C@H](CC(=O)O)NC(=O)[C@H](CO)NC(=O)[C@@H](NC(=O)[C@](C)(Cc1ccccc1F)NC(=O)[C@@H](NC(=O)CNC(=O)[C@H](CCC(=O)O)NC(=O)CCNC(=O)C1(c2cccnc2)CCCC1)[C@@H](C)O)[C@@H](C)O)[C@@H](C)CC)[C@@H](C)CC)C(C)C)C(=O)N[C@@H](C)C(=O)NCC(=O)NCC(=O)N1CCC[C@H]1C(=O)N[C@@H](CO)C(=O)N[C@@H](CO)C(=O)NCC(=O)N[C@@H](C)C(=O)N1CCC[C@H]1C(=O)N1CCC[C@H]1C(=O)N1CCC[C@H]1C(=O)N[C@@H](CO)C(N)=O [Compound 246] ({X60-βAla}-EGT[αMePhe(2-F)]TSDYSI[Aib]LDKIAQK([AEEA-AEEA-γGlu-C20 diacid])AFVQWLIAGGPSSGAPPPS-NH2) | 0.1 to 1 | 130 | 0.1 to 1 | 100 | < 1000 | < 1000 |  |  |  |  |  | 
2 | CC[C@H](C)[C@H](NC(=O)[C@H](CC(C)C)NC(=O)[C@H](Cc1c[nH]c2ccccc12)NC(=O)[C@H](CCC(N)=O)NC(=O)[C@@H](NC(=O)[C@H](Cc1ccccc1)NC(=O)[C@H](C)NC(=O)[C@H](CCCCNC(=O)COCCOCCNC(=O)COCCOCCNC(=O)CC[C@H](NC(=O)CCCCCCCCCCCCCCCCCCC(=O)O)C(=O)O)NC(=O)[C@H](CCC(N)=O)NC(=O)[C@H](C)NC(=O)[C@H](CCC(N)=O)NC(=O)[C@H](CCCCN)NC(=O)[C@H](CC(=O)O)NC(=O)[C@H](CC(C)C)NC(=O)C(C)(C)NC(=O)[C@@H](NC(=O)[C@H](CO)NC(=O)[C@H](Cc1ccc(O)cc1)NC(=O)[C@H](CC(=O)O)NC(=O)[C@H](CO)NC(=O)[C@@H](NC(=O)[C@H](Cc1ccccc1)NC(=O)[C@@H](NC(=O)CNC(=O)[C@H](CCC(=O)O)NC(=O)CCNC(=O)C(C)(C)c1cc(F)cc(C#N)c1)[C@@H](C)O)[C@@H](C)O)[C@@H](C)CC)C(C)C)C(=O)N[C@@H](C)C(=O)NCC(=O)NCC(=O)N1CCC[C@H]1C(=O)N[C@@H](CO)C(=O)N[C@@H](CO)C(=O)NCC(=O)N[C@@H](C)C(=O)N1CCC[C@H]1C(=O)N1CCC[C@H]1C(=O)N1CCC[C@H]1C(=O)N[C@@H](CO)C(N)=O [Compound 186] ({Isobutyryl(2-(3-CN-5-F-Ph))-βAla}-EGTFTSDYSI[Aib]LDKQAQK([AEEA-AEEA-γGlu-C20 diacid])AFVQWLIAGGPSSGAPPPS-NH2) | 0.1 to 1 | 99 | 10 to 100 | 100 | > 1000 | > 1000 |  |  |  |  |  | 
3 | CC[C@H](C)[C@H](NC(=O)[C@H](CC(C)C)NC(=O)[C@H](Cc1c[nH]c2ccccc12)NC(=O)[C@H](CCC(N)=O)NC(=O)[C@@H](NC(=O)[C@H](Cc1ccccc1)NC(=O)[C@H](C)NC(=O)[C@H](CCCCNC(=O)COCCOCCNC(=O)COCCOCCNC(=O)CC[C@H](NC(=O)CCCCCCCCCCCCCCCCCCC(=O)O)C(=O)O)NC(=O)[C@H](CCC(N)=O)NC(=O)[C@H](C)NC(=O)[C@@H](NC(=O)[C@H](CCCCN)NC(=O)[C@H](CC(=O)O)NC(=O)[C@H](CC(C)C)NC(=O)C(C)(C)NC(=O)[C@@H](NC(=O)[C@H](CO)NC(=O)[C@H](Cc1ccc(O)cc1)NC(=O)[C@H](CC(=O)O)NC(=O)[C@H](CO)NC(=O)[C@@H](NC(=O)[C@H](Cc1ccccc1)NC(=O)[C@@H](NC(=O)CNC(=O)[C@H](CCC(=O)O)NC(=O)CCNC(=O)[C@H](C)c1ccccc1)[C@@H](C)O)[C@@H](C)O)[C@@H](C)CC)[C@@H](C)CC)C(C)C)C(=O)N[C@@H](C)C(=O)NCC(=O)NCC(=O)N1CCC[C@H]1C(=O)N[C@@H](CO)C(=O)N[C@@H](CO)C(=O)NCC(=O)N[C@@H](C)C(=O)N1CCC[C@H]1C(=O)N1CCC[C@H]1C(=O)N1CCC[C@H]1C(=O)N[C@@H](CO)C(N)=O [Compound 204] ({X11-βAla}-EGTFTSDYSI[Aib]LDKIAQK([AEEA-AEEA-γGlu-C20 diacid])AFVQWLIAGGPSSGAPPPS-NH2) | 1 to 10 | 106 | 10 to 100 | 105 | > 1000 | > 1000 |  |  |  |  |  | 
4 | CC[C@H](C)[C@H](NC(=O)[C@H](CC(C)C)NC(=O)[C@H](Cc1c[nH]c2ccccc12)NC(=O)[C@H](CCC(N)=O)NC(=O)[C@@H](NC(=O)[C@H](Cc1ccccc1)NC(=O)[C@H](C)NC(=O)[C@H](CCCCNC(=O)COCCOCCNC(=O)COCCOCCNC(=O)CC[C@H](NC(=O)CCCCCCCCCCCCCCCCCCC(=O)O)C(=O)O)NC(=O)[C@H](CCC(N)=O)NC(=O)[C@H](C)NC(=O)[C@@H](NC(=O)[C@H](CCCCN)NC(=O)[C@H](CC(=O)O)NC(=O)[C@H](CC(C)C)NC(=O)C(C)(C)NC(=O)[C@@H](NC(=O)[C@H](CO)NC(=O)[C@H](Cc1ccc(O)cc1)NC(=O)[C@H](CC(=O)O)NC(=O)[C@H](CO)NC(=O)[C@@H](NC(=O)[C@H](Cc1ccccc1)NC(=O)[C@@H](NC(=O)CNC(=O)[C@H](CCC(=O)O)NC(=O)CCCNC(=O)CNC(=O)Nc1cc(Cl)cc(Cl)c1)[C@@H](C)O)[C@@H](C)O)[C@@H](C)CC)[C@@H](C)CC)C(C)C)C(=O)N[C@@H](C)C(=O)NCC(=O)NCC(=O)N1CCC[C@H]1C(=O)N[C@@H](CO)C(=O)N[C@@H](CO)C(=O)NCC(=O)N[C@@H](C)C(=O)N1CCC[C@H]1C(=O)N1CCC[C@H]1C(=O)N1CCC[C@H]1C(=O)N[C@@H](CO)C(N)=O [Compound 266] ({NH(3,5-Cl2-phenyl)-CO}-G[GABA]EGTFTSDYSI[Aib]LDKIAQK([AEEA-AEEA-γGlu-C20 diacid])AFVQWLIAGGPSSGAPPPS-NH2) |  |  |  |  |  |  | 1 to 10 | 105 | 1 to 10 | 105 | < 1000 | > 1000
5 | CC[C@H](C)[C@H](NC(=O)[C@H](CO)NC(=O)[C@H](Cc1ccc(O)cc1)NC(=O)[C@H](CC(=O)O)NC(=O)[C@H](CO)NC(=O)[C@@H](NC(=O)[C@H](Cc1ccccc1)NC(=O)[C@@H](NC(=O)CNC(=O)[C@H](CCC(=O)O)NC(=O)CCNC(=O)[C@@]1(c2ccccc2)CNC(=O)C1)[C@@H](C)O)[C@@H](C)O)C(=O)N[C@@H](Cc1ccc(O)cc1)C(=O)N[C@@H](CC(C)C)C(=O)N[C@@H](CC(=O)O)C(=O)N[C@@H](CCCCN)C(=O)N[C@@H](CCC(N)=O)C(=O)N[C@@H](C)C(=O)N[C@@H](C)C(=O)N[C@@H](CCCCNC(=O)COCCOCCNC(=O)COCCOCCNC(=O)CC[C@H](NC(=O)CCCCCCCCCCCCCCCCCCC(=O)O)C(=O)O)C(=O)N[C@@H](CCC(=O)O)C(=O)N[C@@H](Cc1ccccc1)C(=O)N[C@H](C(=O)N[C@@H](CC(N)=O)C(=O)N[C@@H](Cc1c[nH]c2ccccc12)C(=O)N[C@@H](CC(C)C)C(=O)N[C@@H](CC(C)C)C(=O)N[C@@H](C)C(=O)NCC(=O)NCC(=O)N1CCC[C@H]1C(=O)N[C@@H](CO)C(=O)N[C@@H](CO)C(=O)NCC(=O)N[C@@H](C)C(=O)N1CCC[C@H]1C(=O)N1CCC[C@H]1C(=O)N1CCC[C@H]1C(=O)N[C@@H](CO)C(N)=O)C(C)C (single isomer, unassigned) [Compound 124] | 10 to 100 | 97 | 10 to 100 | 102 | > 1000 | > 1000 |  |  |  |  |  | 
